Data reported in patent US20220241296A1, “PROCESS FOR THE PREPARATION OF STERILE OPHTHALMIC AQUEOUS FLUTICASONE PROPIONATE FORM A NANOCRYSTALS SUSPENSIONS” (NICOX OPHTHALMICS, INC., priority 2019, published 2022).
Where “and” joins values, the source holds several entries; their conditions need not be identical. Equal values may be shown once. Each block holds one compound with its values, some of them ahead of it.

Assays:
[1] = Particle size distribution by laser diffraction (Horiba LA-950) during preparation; assay type: physicochemical; conditions: for particle size (D50—median): materials used in the dissolution test
Method: The particle size of the isolated nanocrystals was evaluated using a laser scattering Particle size distribution analyzer (Horiba LA-950).
4000 g of vehicle 1 were introduced into a 10 L process vessel containing a stir bar, by filtration through a PES 0.2 μm media and were set aside for further use. In a 2 L beaker, 15.04 g of the fluticasone propionate Form A nanocrystals were introduced together with some vehicle 1. […] This concentrated slurry was subject to high-shear, high-speed mixing at 6000±10 RPM for 10 minutes and the particle size distribution was tested by laser diffraction on a Horiba LA-950S2 PSD analyzer.
The 1% w/w fluticasone propionate Form A nanocrystals slurry was subject to high-shear, high-speed mixing at 6000±10 RPM for 10 minutes and the particle size distribution was tested by laser diffraction using a Horiba LA-95052 PSD analyzer.
The particle size distribution was tested by laser diffraction using a Horiba LA-950S2 PSD analyzer.

[2] = In vitro dissolution test (compartment diffusion through dialysis membrane, sink condition); assay type: physicochemical
Method: The dissolution rate of the Fluticasone propionate form A nanocrystals of the nanosuspension of the invention was assessed and compared to the dissolution rate of a standard Fluticasone propionate form 1 micronized material (reference sample). Dissolution profiles of nanocrystals of Fluticasone propionate form A of two nanosuspensions of the invention and of Fluticasone propionate form 1 micronized were performed using a dissolution method. The study was performed using a compartment diffusion analysis through a dialysis membrane and sink condition. The sink condition was achieved through the use of a receptor fluid containing 30 mM phosphate buffer, pH 7.4 with 5% HPβCD cyclodextrins and also by a complete replacement of the buffer every 24 hours to stay below the saturation point. The saturation point was estimated to be 5 μg/g under those experimental conditions and the measurements performed as well as the buffer replacement have shown a maximum concentration of 1.5 μg/g. The study was conducted at a temperature of 37° C. The details of the dissolution test method are provided below: A 5-fold dilution with the formulation vehicle (placebo solution containing all the formulation excipients including the surfactants) of two 0.1% w/w Fluticasone propionate form A nanosuspensions was conducted to obtain a final concentration of 0.02% w/w Fluticasone propionate inside the dialysis device. Fluticasone propionate form 1 micronized was suspended in the same phosphate buffer used in the receiving compartment of the dialysis system. Fluticasone propionate release was carried at 1-2 RPM. […] These aliquots were immediately centrifuged and the measurements were performed by HPLC

[3] = 14-day repeated dose toxicokinetic study, topical application to eyelid margin; set-up: species or system Beagle dogs; conditions: dog, in vivo; for Cmax / Tmax / AUC(0-t) / AUC0-24 h: Beagle, topical or ocular; for AUC(0-t): AUC0-24 h
Description: The purpose of this study was to evaluate the toxicokinetic of fluticasone propionate Form A nanosuspensions of the invention (see Table 10 below) administered via topical application directly to the rim (margin) of upper and lower eyelids of both eyes of Beagle dogs.
Fifty naïve Beagle dogs (25 males and 25 females), approximately 5-6 months old and weighing 5.7 to 8.8 kg for males and females at the outset of the study were assigned to treatment groups (groups 1-4) and to vehicle group.
Male and female Beagle dogs were dosed with fluticasone propionate at 1.6, 9.6, and 32 μg/day (bilateral QD topical application) or at 64 μg/day (bilateral BID topical application) via eye lid applicator directly to the upper and lower eyelids of both eyes once or twice daily (minimum of 6 hours between doses) for 14 consecutive days.
Blood for toxicokinetic evaluation was collected from all animals at selected time points on Days 1 and 14.
Ophthalmology examinations were performed prior to treatment initiation, during the first and second weeks of dosing and during the last week of recovery. Eyes were scored once daily according to the modified Draize scale.
The reversibility of the effects of Fluticasone Propionate nanosuspension was assessed with a 14-day recovery period.

[4] = particle size at preparation, Horiba LA-950
[5] = time point 3 h, 37° C., listed as Fluticasone propionate form A nanocrystals
[6] = time point 5 h, 37° C., listed as Fluticasone propionate form A nanocrystals
[7] = time point 19 h, 37° C., listed as Fluticasone propionate form A nanocrystals
[8] = time point 24 h, 37° C., listed as Fluticasone propionate form A nanocrystals
[9] = time point 48 h, 37° C., listed as Fluticasone propionate form A nanocrystals
[10] = time point 72 h, 37° C., listed as Fluticasone propionate form A nanocrystals

particle size (D50—median) ([1]; listed as Fluticasone propionate form 1 micronized material): 4.64 μm
particle size (D50—median) ([1]; listed as micronized Fluticasone propionate form 1): 4.64 μm
% Dissolution Average % ([2]; time point 3 h, 37° C.): 0.7%
% Dissolution Tube #1 ([2]; time point 3 h, 37° C.): 0.8%
% Dissolution Tube #2 ([2]; time point 3 h, 37° C.): 0.5%
% Dissolution Tube #3 ([2]; time point 3 h, 37° C.): 0.9%
% Dissolution Average % ([2]; time point 5 h, 37° C.): 2.6%
% Dissolution Tube #1 ([2]; time point 5 h, 37° C.): 2.9%
% Dissolution Tube #2 ([2]; time point 5 h, 37° C.): 1.9%
% Dissolution Tube #3 ([2]; time point 5 h, 37° C.): 3.0%
% Dissolution Average % ([2]; time point 19 h, 37° C.): 19.4%
% Dissolution Tube #1 ([2]; time point 19 h, 37° C.): 20.9%
% Dissolution Tube #2 ([2]; time point 19 h, 37° C.): 17.1%
% Dissolution Tube #3 ([2]; time point 19 h, 37° C.): 20.3%
% Dissolution Average % ([2]; time point 24 h, 37° C.): 22.6%
% Dissolution Tube #1 ([2]; time point 24 h, 37° C.): 24.2%
% Dissolution Tube #2 ([2]; time point 24 h, 37° C.): 20.2%
% Dissolution Tube #3 ([2]; time point 24 h, 37° C.): 23.5%
% Dissolution Average % ([2]; time point 48 h, 37° C.): 48.6%
% Dissolution Tube #1 ([2]; time point 48 h, 37° C.): 51.1%
% Dissolution Tube #2 ([2]; time point 48 h, 37° C.): 44.0%
% Dissolution Tube #3 ([2]; time point 48 h, 37° C.): 50.6%
% Dissolution Average % ([2]; time point 72 h, 37° C.): 73.4%
% Dissolution Tube #1 ([2]; time point 72 h, 37° C.): 77.4%
% Dissolution Tube #2 ([2]; time point 72 h, 37° C.): 66.7%
% Dissolution Tube #3 ([2]; time point 72 h, 37° C.): 76.2%
Compound: CCC(=O)O[C@]1(C(=O)SCF)[C@H](C)C[C@H]2[C@@H]3C[C@H](F)C4=CC(=O)C=C[C@]4(C)[C@@]3(F)[C@@H](O)C[C@@]21C [Micronized Fluticasone propionate form 1, fluticasone propionate]

saturation point ([2]; receptor fluid: 30 mM phosphate buffer, pH 7.4 with 5% HPβCD, 37° C.): ~5 µg/g
Compound: CCC(=O)O[C@]1(C(=O)SCF)[C@H](C)C[C@H]2[C@@H]3C[C@H](F)C4=CC(=O)C=C[C@]4(C)[C@@]3(F)[C@@H](O)C[C@@]21C [Fluticasone Propionate, fluticasone propionate]
Cmax ([3]; both sexes, 1.6 ug/day, Cmax): 0.0281 ± 0.0266 ng/mL
Tmax ([3]; both sexes, 1.6 ug/day, Tmax): 45 min
AUC(0-t) ([3]; both sexes, 9.6 ug/day): 0.191 ± 0.335 ng·h/mL
Cmax ([3]; both sexes, 9.6 ug/day, Cmax): 0.0608 ± 0.0487 ng/mL
Tmax ([3]; both sexes, 9.6 ug/day, Tmax): 30 min
AUC(0-t) ([3]; both sexes, 32 ug/day): 0.481 ± 0.361 ng·h/mL
Cmax ([3]; both sexes, 32 ug/day, Cmax): 0.13 ± 0.155 ng/mL
Tmax ([3]; both sexes, 32 ug/day, Tmax): 30 min
AUC(0-t) ([3]; both sexes, 64 ug/day): 0.914 ± 0.413 ng·h/mL
Cmax ([3]; both, 1.6 ug/day): 0.0324 ± 0.0264 ng/mL
Tmax ([3]; both, 1.6 ug/day): 30 min
AUC0-24 h ([3]; both, 9.6 ug/day): 0.101 ± 0.102 ng·h/mL
Cmax ([3]; both, 9.6 ug/day): 0.0798 ± 0.07 ng/mL
Tmax ([3]; both, 9.6 ug/day): 30 min
AUC0-24 h ([3]; both, 32 ug/day): 0.482 ± 0.407 ng·h/mL
Cmax ([3]; both, 32 ug/day): 0.25 ± 0.219 ng/mL
Tmax ([3]; both, 32 ug/day): 30 min
AUC0-24 h ([3]; both, 64 ug/day): 0.76 ± 0.188 ng·h/mL
exposure versus dose [3]: dose-dependent
gender-related differences in exposure [3]: no discernable gender-related differences in exposure

particle size (D50—median) [1]: 0.434 μm
D50 [1, 4]: 0.2153 μm
D90 [1, 4]: 0.6073 μm
dissolution profile compared with Fluticasone propionate form 1 micronized material ([2]; despite different particle size): similar
% Dissolution Average % ([2]; time point 1 h, 37° C.): 0.0%
% Dissolution Tube #1 ([2]; time point 1 h, 37° C.): 0.0%
% Dissolution Tube #2 ([2]; time point 1 h, 37° C.): 0.0%
% Dissolution Tube #3 ([2]; time point 1 h, 37° C.): 0.0%
% Dissolution Average % [2, 5]: 0.8% and 0.7%
% Dissolution Tube #1 [2, 5]: 0.2% and 0.6%
% Dissolution Tube #2 [2, 5]: 1.4% and 0.5%
% Dissolution Tube #3 [2, 5]: 0.7% and 0.8%
% Dissolution Average % [2, 6]: 2.2% and 2.3%
% Dissolution Tube #1 [2, 6]: 1.3% and 2.4%
% Dissolution Tube #2 [2, 6]: 2.8% and 2.0%
% Dissolution Tube #3 [2, 6]: 2.4% and 2.6%
% Dissolution Average % [2, 7]: 17.8% and 19.0%
% Dissolution Tube #1 [2, 7]: 14.5% and 19.0%
% Dissolution Tube #2 [2, 7]: 20.4% and 18.2%
% Dissolution Tube #3 [2, 7]: 18.7% and 19.7%
% Dissolution Average % [2, 8]: 21.3% and 22.4%
% Dissolution Tube #1 [2, 8]: 17.5% and 22.4%
% Dissolution Tube #2 [2, 8]: 24.0% and 21.5%
% Dissolution Tube #3 [2, 8]: 22.4% and 23.2%
% Dissolution Average % [2, 9]: 46.2% and 48.5%
% Dissolution Tube #1 [2, 9]: 38.7% and 49.1%
% Dissolution Tube #2 [2, 9]: 51.4% and 45.6%
% Dissolution Tube #3 [2, 9]: 48.6% and 50.9%
% Dissolution Average % [2, 10]: 70.5% and 73.9%
% Dissolution Tube #1 [2, 10]: 59.6% and 75.1%
% Dissolution Tube #2 [2, 10]: 78.1% and 69.1%
% Dissolution Tube #3 [2, 10]: 74.0% and 77.7%
Compound: CCC(=O)O[C@]1(C(=O)SCF)[C@H](C)C[C@H]2[C@@H]3C[C@H](F)C4=CC(=O)C=C[C@]4(C)[C@@]3(F)[C@@H](O)C[C@@]21C [fluticasone propionate]
